According to patent EP4559919A1, “TRICYCLIC-CONTAINING MACROCYCLIC COMPOUND AND USE THEREOF” (Medshine Discovery Inc., priority 2022, dated 2024):

How the values were obtained:
ALK(L1196M) = target: T1, ALK(L1196M) (Homo sapiens, UniProt Q9UM73, L1196M); test: In vitro kinase inhibitory activity assay, Experimental method 1 (ADP-Glo); assay type: biochemical; settings: final ATP 50 µM, read-out: Kinase half maximal inhibitory concentration IC50 ALK^L1196M
T1 construct: purchased Carna
Protocol: (§1) The kinase inhibitory activity assays of the compounds against ALK, ALK^L1196M, ALK^G1202R, ALK^G1202R/L1196M, ROS1, and TRKB were conducted at Wuhan Heyan Biotechnology Co., Ltd. or Hefei PreceDo Biotechnology Co., Ltd.
(§2) Experimental materials: ALK Active, ALK(L1196M) Active, ALK(G1202R) Active, and ALK(G1202R/L1196M) Active were purchased from Carna; SRC Substrate was purchased from SignalChem; IGF1R tide was purchased from SignalChem; ADP-Glo Kinase Assay was purchased from Promega; Kinase assay buffer III was purchased from SignalChem; and Nivo multimode plate reader (PerkinElmer).
(§3) Each concentration of the compounds was further diluted 20-fold using 1X kinase buffer to prepare compound working solutions containing 5% DMSO. 1 µL of each concentration gradient working solution was added to a microplate, with duplicate wells set for each concentration. 2 µL of ALK enzyme (15 ng per well) and 2 µL of a mixture of substrate and ATP (25 µM ATP, 0.5 µg/µL SRC Substrate) were added to the microplate. […] The reaction system was placed at 25°C for 1 hour. After the reaction, 5 µL of ADP-Glo reagent was added to each well and reacted at 25°C for another 40 minutes. […] Chemiluminescence was then measured using the PerkinElmer Nivo multimode plate reader with an integration time of 0.5 seconds. […]

ALK(G1202R) = target: T2, ALK(G1202R) (Homo sapiens, UniProt Q9UM73, G1202R); test: as above; assay type: biochemical; settings: final ATP 50 µM, read-out: Kinase half maximal inhibitory concentration IC50 ALK^G1202R
T2 construct: purchased Carna
T2 sequence (Q9UM73 19-1620 G1202R): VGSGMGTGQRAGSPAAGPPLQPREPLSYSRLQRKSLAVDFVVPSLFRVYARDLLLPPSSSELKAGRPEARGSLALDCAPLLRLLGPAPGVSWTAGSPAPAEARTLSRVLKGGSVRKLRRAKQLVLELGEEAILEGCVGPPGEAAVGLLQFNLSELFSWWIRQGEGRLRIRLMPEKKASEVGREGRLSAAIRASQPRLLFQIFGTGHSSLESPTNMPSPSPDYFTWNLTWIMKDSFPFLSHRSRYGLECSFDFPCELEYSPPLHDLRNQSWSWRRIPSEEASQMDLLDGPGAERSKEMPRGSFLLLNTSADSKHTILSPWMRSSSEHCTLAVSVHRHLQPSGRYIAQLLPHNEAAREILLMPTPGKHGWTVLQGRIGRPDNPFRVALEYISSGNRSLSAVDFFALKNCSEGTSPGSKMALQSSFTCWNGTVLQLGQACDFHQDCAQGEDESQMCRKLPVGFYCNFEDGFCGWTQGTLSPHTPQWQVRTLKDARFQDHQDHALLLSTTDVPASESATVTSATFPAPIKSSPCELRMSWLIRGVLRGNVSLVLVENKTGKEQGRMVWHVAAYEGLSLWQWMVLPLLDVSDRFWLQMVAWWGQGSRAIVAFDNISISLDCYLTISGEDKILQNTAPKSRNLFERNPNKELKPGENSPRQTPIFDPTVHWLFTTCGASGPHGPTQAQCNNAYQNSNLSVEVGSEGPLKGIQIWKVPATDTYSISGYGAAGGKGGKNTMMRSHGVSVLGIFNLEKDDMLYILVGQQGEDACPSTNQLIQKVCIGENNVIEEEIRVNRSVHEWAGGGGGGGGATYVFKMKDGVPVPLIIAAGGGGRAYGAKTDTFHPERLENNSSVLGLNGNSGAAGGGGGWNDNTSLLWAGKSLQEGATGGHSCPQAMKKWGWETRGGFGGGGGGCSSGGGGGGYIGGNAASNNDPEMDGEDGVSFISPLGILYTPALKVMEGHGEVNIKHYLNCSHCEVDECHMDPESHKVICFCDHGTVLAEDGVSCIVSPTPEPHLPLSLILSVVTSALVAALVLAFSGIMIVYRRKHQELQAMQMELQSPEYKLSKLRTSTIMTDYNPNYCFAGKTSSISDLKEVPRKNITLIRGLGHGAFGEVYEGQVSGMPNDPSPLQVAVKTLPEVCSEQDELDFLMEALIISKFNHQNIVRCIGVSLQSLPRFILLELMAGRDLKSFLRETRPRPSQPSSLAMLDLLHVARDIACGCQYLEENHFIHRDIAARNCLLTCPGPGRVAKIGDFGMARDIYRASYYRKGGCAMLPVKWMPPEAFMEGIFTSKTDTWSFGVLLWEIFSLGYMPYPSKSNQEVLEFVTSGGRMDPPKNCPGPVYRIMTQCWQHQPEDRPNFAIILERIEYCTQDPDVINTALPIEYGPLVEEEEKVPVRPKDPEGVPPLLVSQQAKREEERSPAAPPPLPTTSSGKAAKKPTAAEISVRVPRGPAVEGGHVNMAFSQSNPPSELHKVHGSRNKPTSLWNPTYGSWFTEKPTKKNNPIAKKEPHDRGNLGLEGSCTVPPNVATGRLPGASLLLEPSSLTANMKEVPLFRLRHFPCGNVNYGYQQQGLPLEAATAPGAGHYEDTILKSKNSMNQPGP
Protocol: as §1, §2
(§4) Each concentration of the compounds was further diluted 20-fold using 1X kinase buffer to prepare compound working solutions containing 5% DMSO. 1 µL of each concentration gradient working solution was added to a microplate, with duplicate wells set for each concentration. 2 µL of ALK enzyme (15 ng per well) and 2 µL of a mixture of substrate and ATP (25 µM ATP, 0.5 µg/µL SRC Substrate) were added to the microplate. […] The reaction system was placed at 25°C for 1 hour. After the reaction, 5 µL of ADP-Glo reagent was added to each well and reacted at 25°C for another 40 minutes. After the reaction, 10 µL of kinase detection reagent was added to each well and reacted at 25°C for 30 minutes. Chemiluminescence was then measured using the PerkinElmer Nivo multimode plate reader with an integration time of 0.5 seconds.
ALK (G1202R) kinase inhibition assay method: The preparation method for the working solution of the test compound was the same as for the ALK kinase. […] The subsequent steps were the same as for ALK kinase.
(§5) The IC50 value could then be derived by performing a curve fit using a four-parameter logistic model (obtained using the "log(inhibitor) vs. response -- Variable slope" mode in GraphPad Prism).

ALK(G1202R/L1196M) [1] = target: T3, ALK(G1202R/L1196M) (Homo sapiens, UniProt Q9UM73, G1202R/L1196M); test: as above; assay type: biochemical; settings: final ATP 50 µM, read-out: Kinase half maximal inhibitory concentration IC50 ALK^G1202R/L1196M
T3 construct: purchased Carna
T3 sequence (Q9UM73 19-1620 L1196M/G1202R): as the sequence (Q9UM73 19-1620 G1202R) above, with L1178M counted along it
Protocol: as §1, §2, §4
ALK (G1202R/L1196M) kinase inhibition assay method: The preparation method for the working solution of the test compound was the same as for the ALK kinase. […] The subsequent steps were the same as for ALK kinase.
as §5

TRKB [2] = target: T4, TRKB (Homo sapiens, UniProt Q16620); test: as above; assay type: biochemical; settings: read-out: Kinase half maximal inhibitory concentration IC50 TRKB
T4 construct: purchased Carna
T4 sequence (Q16620 32-822): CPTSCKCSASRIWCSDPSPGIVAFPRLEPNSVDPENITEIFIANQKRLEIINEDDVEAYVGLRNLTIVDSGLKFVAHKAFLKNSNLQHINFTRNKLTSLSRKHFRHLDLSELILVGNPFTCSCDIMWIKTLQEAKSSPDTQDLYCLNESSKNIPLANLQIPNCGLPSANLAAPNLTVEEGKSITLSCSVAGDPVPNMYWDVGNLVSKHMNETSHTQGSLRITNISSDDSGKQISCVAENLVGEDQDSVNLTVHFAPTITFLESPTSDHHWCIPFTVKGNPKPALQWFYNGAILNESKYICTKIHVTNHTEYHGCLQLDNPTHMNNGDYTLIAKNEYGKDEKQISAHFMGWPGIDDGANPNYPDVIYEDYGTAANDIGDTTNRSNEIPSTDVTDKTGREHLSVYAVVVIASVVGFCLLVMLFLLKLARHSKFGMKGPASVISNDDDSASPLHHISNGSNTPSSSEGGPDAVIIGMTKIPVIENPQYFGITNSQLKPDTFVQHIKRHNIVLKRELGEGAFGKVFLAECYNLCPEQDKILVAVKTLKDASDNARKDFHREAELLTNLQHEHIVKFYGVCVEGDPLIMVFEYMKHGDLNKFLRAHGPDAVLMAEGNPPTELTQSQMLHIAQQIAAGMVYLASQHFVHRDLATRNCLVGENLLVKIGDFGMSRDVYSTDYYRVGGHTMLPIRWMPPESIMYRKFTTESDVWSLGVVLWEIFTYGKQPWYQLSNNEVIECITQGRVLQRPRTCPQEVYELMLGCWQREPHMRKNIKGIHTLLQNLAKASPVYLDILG
Protocol: as §1, §2, §4
TRKB kinase inhibition assay method: The preparation method for the working solution of the test compound was the same as for the ALK kinase. 2 µL of TRKB (0.5 ng per well) and 4 µL of a mixture of substrate and ATP (5 µM ATP, 0.5 µM SRC Substrate) were added to the microplate. […] The subsequent steps were the same as for ALK kinase.
as §5

ALK = target: T5, ALK (Homo sapiens, UniProt Q9UM73); test: as above; assay type: biochemical; settings: final ATP 10 µM, read-out: Kinase half maximal inhibitory concentration IC50 ALK
T5 construct: purchased Carna
T5 sequence (Q9UM73 19-1620): as the sequence (Q9UM73 19-1620 G1202R) above, with R1184G counted along it
Protocol: as §1, §2, §3

ROS1 = ROS1 (Homo sapiens, UniProt P08922); test: as above; assay type: biochemical; settings: read-out: Kinase half maximal inhibitory concentration IC50 ROS1
ROS1, sequence (P08922 28-2347): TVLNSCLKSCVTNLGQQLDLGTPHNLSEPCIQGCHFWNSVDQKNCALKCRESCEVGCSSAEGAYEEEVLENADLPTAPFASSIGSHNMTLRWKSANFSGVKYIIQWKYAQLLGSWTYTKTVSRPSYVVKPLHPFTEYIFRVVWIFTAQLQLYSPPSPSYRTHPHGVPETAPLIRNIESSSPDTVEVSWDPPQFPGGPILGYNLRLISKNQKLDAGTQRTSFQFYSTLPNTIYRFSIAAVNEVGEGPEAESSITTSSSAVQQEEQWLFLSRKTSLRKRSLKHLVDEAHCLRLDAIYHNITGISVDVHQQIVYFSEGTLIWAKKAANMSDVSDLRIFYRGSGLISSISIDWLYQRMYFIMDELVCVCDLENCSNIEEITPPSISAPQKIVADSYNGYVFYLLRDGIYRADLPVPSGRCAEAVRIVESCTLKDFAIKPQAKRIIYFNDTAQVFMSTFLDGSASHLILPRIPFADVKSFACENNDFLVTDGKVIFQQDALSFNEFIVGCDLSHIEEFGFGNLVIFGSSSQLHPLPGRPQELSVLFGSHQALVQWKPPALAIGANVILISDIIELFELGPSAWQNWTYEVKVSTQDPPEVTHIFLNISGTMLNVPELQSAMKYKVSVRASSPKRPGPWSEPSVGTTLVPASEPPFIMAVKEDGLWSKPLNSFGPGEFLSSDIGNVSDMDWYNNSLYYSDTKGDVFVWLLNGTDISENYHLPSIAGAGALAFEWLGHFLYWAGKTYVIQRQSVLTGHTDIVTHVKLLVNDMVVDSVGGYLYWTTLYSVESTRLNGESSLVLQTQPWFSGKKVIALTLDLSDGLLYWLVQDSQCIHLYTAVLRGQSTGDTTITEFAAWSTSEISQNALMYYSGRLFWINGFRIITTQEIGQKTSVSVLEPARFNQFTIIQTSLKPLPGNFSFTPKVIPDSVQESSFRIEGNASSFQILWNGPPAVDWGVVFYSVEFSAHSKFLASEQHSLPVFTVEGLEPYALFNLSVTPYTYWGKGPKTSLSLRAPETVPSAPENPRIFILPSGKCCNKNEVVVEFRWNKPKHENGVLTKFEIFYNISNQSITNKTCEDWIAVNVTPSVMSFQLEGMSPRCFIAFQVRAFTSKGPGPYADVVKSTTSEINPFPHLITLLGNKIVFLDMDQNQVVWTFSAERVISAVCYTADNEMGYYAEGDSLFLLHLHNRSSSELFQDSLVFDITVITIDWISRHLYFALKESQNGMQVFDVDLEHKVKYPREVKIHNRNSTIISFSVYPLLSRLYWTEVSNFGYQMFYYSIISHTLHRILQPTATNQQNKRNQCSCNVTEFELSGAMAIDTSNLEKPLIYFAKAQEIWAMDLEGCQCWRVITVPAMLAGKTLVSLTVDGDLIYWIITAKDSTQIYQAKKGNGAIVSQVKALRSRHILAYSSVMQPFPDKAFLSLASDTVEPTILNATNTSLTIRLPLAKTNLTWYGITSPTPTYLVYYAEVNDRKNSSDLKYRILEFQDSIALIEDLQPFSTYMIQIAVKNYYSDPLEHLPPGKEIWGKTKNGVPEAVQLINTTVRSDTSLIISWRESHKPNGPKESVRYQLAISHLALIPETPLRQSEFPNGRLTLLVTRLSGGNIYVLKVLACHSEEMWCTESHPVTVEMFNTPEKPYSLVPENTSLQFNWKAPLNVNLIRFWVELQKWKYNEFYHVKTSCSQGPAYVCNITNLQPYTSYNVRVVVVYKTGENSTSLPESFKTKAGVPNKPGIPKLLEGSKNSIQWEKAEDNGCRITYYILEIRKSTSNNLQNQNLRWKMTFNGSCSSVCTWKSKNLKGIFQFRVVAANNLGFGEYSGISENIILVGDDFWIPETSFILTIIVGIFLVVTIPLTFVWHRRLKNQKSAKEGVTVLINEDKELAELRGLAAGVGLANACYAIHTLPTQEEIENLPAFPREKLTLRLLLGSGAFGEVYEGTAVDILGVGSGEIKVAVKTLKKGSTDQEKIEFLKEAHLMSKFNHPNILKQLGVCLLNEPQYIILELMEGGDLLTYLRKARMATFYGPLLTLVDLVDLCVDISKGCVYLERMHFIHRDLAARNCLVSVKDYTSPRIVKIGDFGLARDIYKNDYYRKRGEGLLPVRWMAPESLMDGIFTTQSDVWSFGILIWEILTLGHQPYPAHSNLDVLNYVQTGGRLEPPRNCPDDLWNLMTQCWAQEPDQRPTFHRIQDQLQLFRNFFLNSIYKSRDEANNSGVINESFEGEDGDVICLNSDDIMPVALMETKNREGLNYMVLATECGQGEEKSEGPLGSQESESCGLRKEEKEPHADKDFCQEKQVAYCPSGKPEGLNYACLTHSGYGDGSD
Protocol: as §1, §2, §3

Ba/F3-TEL-TRKB = test: Anti-proliferative activity test on Ba/F3 cell lines (CellTiter-Glo); assay type: cell-based; settings: Mus musculus, BaF3; 72 hours; read-out: Half maximal inhibitory concentration IC50 for cells Ba/F3-TEL-TRKB
Protocol: (§6) • (1) Cell culture: The cell lines were cultured in an incubator at 37°C with 5% CO2. Regular passaging was performed, and cells in the logarithmic growth phase were selected for plating; • (2) Preparation of compound storage plate: The test compounds were prepared into a 10 mM solution with DMSO (Stock Con.); The compounds were then prepared into a 1 mM solution with DMSO (Work Con.); 1 µL of the stock solution was mixed with 9 µL of DMSO to prepare a 10 µL work solution. • (3) Preparation of 1000× compound storage plate (tube): The compounds were 3-fold serially diluted from […] to the lowest concentration, for a total of 8 concentrations; • (4) Preparation of 20× compound working solution: 98 µL of cell culture medium was added to a flat-bottomed 96-well transparent drug plate. From the 1000× compound storage plate, 2 µL of the compound was pipetted into the cell culture medium in the 96-well transparent drug plate. In the solvent control, 2 µL of DMSO was added. After the compound or DMSO was added, the mixture was homogenized using a pipette. • (5) Cells were stained with trypan blue and viable cells were counted to ensure a cell viability of 90% or more. The cell concentration was adjusted to an appropriate concentration; • (6) 95 µL of cell suspension (2000 cells/well) was added to each well of the compound assay cell plate, and cell-free culture medium containing 0.1% DMSO was added to the Min control wells; • (7) Administration in the compound assay cell plate: 5 µL of 20× compound working solution was added to the cell culture plate, 5 µL of DMSO-cell culture medium mixture was added to the Max control wells, and the final concentration of DMSO was 0.1%; • (8) The culture plate was then incubated in an incubator at 37°C with 5% CO2 for 72 hours; • (9) The following operations were conducted in accordance with the instructions of the Promega CellTiter-Glo Luminescent Cell Viability Assay Kit (Promega-G7573): CellTiter-Glo buffer was thawed and brought to room temperature; CellTiter-Glo substrate was brought to room temperature; CellTiter-Glo buffer was added to a bottle of CellTiter-Glo substrate to dissolve the substrate, thereby preparing CellTiter-Glo working solution; The mixture was slowly vortexed and shaken to be fully dissolved; The cell culture plate was removed and allowed to equilibrate to room temperature for 10 minutes; 50 µL (equal to half the volume of cell culture medium in each well) of CellTiter-Glo working solution was added to each well; The culture plate was shaken on an orbital shaker for 2 minutes to induce cell lysis; The plate was then left at room temperature for 10 minutes to stabilize the luminescent signal; The luminescent signal was detected using a SpectraMax Paradigm plate reader; Cell viability assay was conducted using CellTiter-Glo luminescence method.
(§7) Data analysis: The corresponding […] value (RLU) for each well was obtained from SpectraMax Paradigm readings. […] The inhibition rates corresponding to compounds at different concentrations were calculated in Excel, and the inhibition rate curves were plotted using GraphPad Prism software to calculate relevant parameters, including the maximum and minimum inhibition rates of the cells and the IC50 value.

[3] = tested on: Ba/F3-EML4-ALK-G1202R/L1196M; test: as above; assay type: cell-based
Protocol: as §6, §7

ALK(G1202R/L1196M) [4] = target: T3, ALK(G1202R/L1196M); test: In vitro kinase inhibitory activity assay, Experimental method 2 (ADP-Glo); assay type: biochemical; settings: Experimental method 2; ATP 5.0 µM, substrate IGF1; read-out: Kinase half maximal inhibitory concentration IC50 ALK^G1202R/L1196M
Protocol: as §1
(§8) Experimental materials: ALK (G1202R/L1196M) Active and TRKB were purchased from Carna; IGF1 was purchased from GenScript; PolyE4Y1 was purchased from SIGMA; ADP-Glo™ Reagent was purchased from Promega; ATP was purchased from Promega; Kinase Detection Reagent was purchased from Promega; microplate reader ( PerkinElmer).
Reaction system: ALK(G1202R/L1196M) reaction concentration 8.63 nM, ATP concentration 5.0 µM, substrate IGF1 concentration 0.2 µg/µL. ALK(G1202R/L1196M) kinase buffer was 40 mM Tris-HCl (pH 7.5) + 20 mM magnesium chloride + 0.1 mg/mL BSA + 50 µM DTT.
(§9) ALK(G1202R/L1196M) and TRKB detection method: 2 µL of kinase and 1 µL of compound were added to a 384-well plate; 2 µL of substrate/ATP mixture was added and incubated at room temperature in the dark for 60 minutes; 5 µL of ADP-Glo™ reagent was added and incubated at room temperature for 40 minutes; 10 µL of kinase detection reagent was added and incubated at room temperature for 30 minutes; the plate was read on a microplate reader, and luminescence was recorded (integration time set to 0.5 seconds).
as §5

[5] = HMS CLint (liver) test, hepatocyte metabolic stability; assay type: in vitro ADME; settings: 0.5 × 10^6 cells/mL, up to 90 minutes
Protocol: The metabolic stability of the compounds of the present disclosure was tested in human and mouse hepatocytes.
• (1) Test compound (10 mM); Control: 7-ethoxycoumarin (30 mM), 7-hydroxycoumarin (reference substance, 30 mM); • Mouse hepatocytes with cell viability of 73.8%, supplier Cat No.: BioreclamationIVTM005052; • Human hepatocytes with cell viability of 94.6%, supplier Cat No.: Bioreclamation IVTX008001. • (2) Buffer system: Thawing medium: Williams' medium E containing 5% fetal bovine serum, 30% Percoll solution, and other auxiliary materials.
Incubation medium: Williams' medium E (without phenol red) containing 2 mM L-glutamine and 25 mM 4-(2-hydroxyethyl)-1-piperazineethanesulfonic acid.
Stop solution: acetonitrile containing 200 ng/mL tolbutamide and labetalol as internal standard. […]
The residual rates of the test compound and the control compound were determined using the following formula: Residual rate (%) = (Peak area ratio of compound to internal standard at any time point)/(Peak area ratio of compound to internal standard at 0 minutes) × 100% [formula]
The elimination rate constant (k) of the test compound and the control compound in hepatocytes was calculated by plotting the logarithm of the residual rate against time. […]

TRKB [6] = target: T4, TRKB; test: In vitro kinase inhibitory activity assay, Experimental method 2 (ADP-Glo); assay type: biochemical; settings: Experimental method 2; ATP 5.0 µM, substrate PolyE4Y1; read-out: Kinase half maximal inhibitory concentration IC50 TRKB
Protocol: as §1, §8
TRKB reaction concentration 4.47 nM, ATP concentration 5.0 µM, substrate PolyE4Y1 concentration 0.2 µg/µL. TRKB kinase buffer was 40 mM Tris-HCl (pH 7.5) + 20 mM magnesium chloride + 2.5 mM manganese chloride + 0.1mg/mL BSA+ 50 µM DTT.
as §9, §5

T1 sequence (Q9UM73 19-1620 L1196M): as the sequence (Q9UM73 19-1620 G1202R) above, with L1178M, R1184G counted along it

| Compound | IC50 (ALK(L1196M)) [nM] | IC50 (ALK(G1202R)) [nM] | IC50 (ALK(G1202R/L1196M) [1]) [nM] | IC50 (TRKB [2]) [nM] | IC50 (ALK) [nM] | IC50 (ROS1) [nM] | IC50 (Ba/F3-TEL-TRKB) [nM] | IC50 ([3]; Ba/F3 EML4-ALK-G1202R-L1196M, 72 hours, read-out: Half maximal inhibitory concentration IC50 for cells Ba/F3-EML4-ALK-G1202R/L1196 M) [nM] | selectivity: inhibition against ALK-mutant cells versus TRKB phenotypic cells ([3]; stronger inhibition of ALK-mutant cells, relatively weaker of TRKB phenotypic cells) | IC50 (ALK(G1202R/L1196M) [4]) [nM] | CLint scaled ([5]; Human hepatocytes) [mL/min/kg] | CLint scaled ([5]; Mouse hepatocytes) [mL/min/kg] | IC50 (TRKB [6]) [nM] |
| --- | --- | --- | --- | --- | --- | --- | --- | --- | --- | --- | --- | --- | --- |
| CON=C1NC(C)(C)COc2ccc(F)cc2CN2c3nc4c1cnn4cc3OC[C@H]2C(F)F [Compound 001] | 12.8 | 16.9 | 12.4 | 2.2 | 22.2 | 17.3 | – | – | – | – | – | – | – |
| CC#Cc1nn2cc3c4nc2c1C(=O)NC(C)(C)COc1ccc(F)cc1CN4[C@H](C(F)F)CO3 [Compound 018] | – | – | – | – | – | – | 6.9 | 1.1 | excellent selectivity | 0.7 | < 17.8 | 291 | 4.9 |
